In patent US7998989B2, “2-Imino-1,3-thiazoline-based compounds and T-type calcium channel inhibitors containing the same” (Korea Institute of Science and Technology, priority 2007, dated 2011):
Where two headings read alike, the source gives them in different places.

How the values were obtained:
[1] = target: T1, α1G T-type calcium channel (Homo sapiens, UniProt O43497); assay: Assay for % inhibiting activity against T-type calcium channel using FDSS6000 (fluo-3 calcium imaging, KCl activation); format: cell-based
T1 construct: host or cells: HEK293
How it was run: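 HEK293 cells stably expressing α1G and Kir2.1 loaded with 5 μM fluo-3/AM, then in HEPES buffer (pH 7.4) with 10 mM CaCl2. Compound applied 75 s before 75 mM KCl; intracellular Ca2+ read as […] area, % inhibition relative to untreated control.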

[2] = HEK293, 10 μM, HEK293 cells stably expressing α1G T-type calcium channel and Kir2.1, compounds of the examples, read-out: FDSS (% inhibition)/10uM

T1 sequence (O43497 whole entry): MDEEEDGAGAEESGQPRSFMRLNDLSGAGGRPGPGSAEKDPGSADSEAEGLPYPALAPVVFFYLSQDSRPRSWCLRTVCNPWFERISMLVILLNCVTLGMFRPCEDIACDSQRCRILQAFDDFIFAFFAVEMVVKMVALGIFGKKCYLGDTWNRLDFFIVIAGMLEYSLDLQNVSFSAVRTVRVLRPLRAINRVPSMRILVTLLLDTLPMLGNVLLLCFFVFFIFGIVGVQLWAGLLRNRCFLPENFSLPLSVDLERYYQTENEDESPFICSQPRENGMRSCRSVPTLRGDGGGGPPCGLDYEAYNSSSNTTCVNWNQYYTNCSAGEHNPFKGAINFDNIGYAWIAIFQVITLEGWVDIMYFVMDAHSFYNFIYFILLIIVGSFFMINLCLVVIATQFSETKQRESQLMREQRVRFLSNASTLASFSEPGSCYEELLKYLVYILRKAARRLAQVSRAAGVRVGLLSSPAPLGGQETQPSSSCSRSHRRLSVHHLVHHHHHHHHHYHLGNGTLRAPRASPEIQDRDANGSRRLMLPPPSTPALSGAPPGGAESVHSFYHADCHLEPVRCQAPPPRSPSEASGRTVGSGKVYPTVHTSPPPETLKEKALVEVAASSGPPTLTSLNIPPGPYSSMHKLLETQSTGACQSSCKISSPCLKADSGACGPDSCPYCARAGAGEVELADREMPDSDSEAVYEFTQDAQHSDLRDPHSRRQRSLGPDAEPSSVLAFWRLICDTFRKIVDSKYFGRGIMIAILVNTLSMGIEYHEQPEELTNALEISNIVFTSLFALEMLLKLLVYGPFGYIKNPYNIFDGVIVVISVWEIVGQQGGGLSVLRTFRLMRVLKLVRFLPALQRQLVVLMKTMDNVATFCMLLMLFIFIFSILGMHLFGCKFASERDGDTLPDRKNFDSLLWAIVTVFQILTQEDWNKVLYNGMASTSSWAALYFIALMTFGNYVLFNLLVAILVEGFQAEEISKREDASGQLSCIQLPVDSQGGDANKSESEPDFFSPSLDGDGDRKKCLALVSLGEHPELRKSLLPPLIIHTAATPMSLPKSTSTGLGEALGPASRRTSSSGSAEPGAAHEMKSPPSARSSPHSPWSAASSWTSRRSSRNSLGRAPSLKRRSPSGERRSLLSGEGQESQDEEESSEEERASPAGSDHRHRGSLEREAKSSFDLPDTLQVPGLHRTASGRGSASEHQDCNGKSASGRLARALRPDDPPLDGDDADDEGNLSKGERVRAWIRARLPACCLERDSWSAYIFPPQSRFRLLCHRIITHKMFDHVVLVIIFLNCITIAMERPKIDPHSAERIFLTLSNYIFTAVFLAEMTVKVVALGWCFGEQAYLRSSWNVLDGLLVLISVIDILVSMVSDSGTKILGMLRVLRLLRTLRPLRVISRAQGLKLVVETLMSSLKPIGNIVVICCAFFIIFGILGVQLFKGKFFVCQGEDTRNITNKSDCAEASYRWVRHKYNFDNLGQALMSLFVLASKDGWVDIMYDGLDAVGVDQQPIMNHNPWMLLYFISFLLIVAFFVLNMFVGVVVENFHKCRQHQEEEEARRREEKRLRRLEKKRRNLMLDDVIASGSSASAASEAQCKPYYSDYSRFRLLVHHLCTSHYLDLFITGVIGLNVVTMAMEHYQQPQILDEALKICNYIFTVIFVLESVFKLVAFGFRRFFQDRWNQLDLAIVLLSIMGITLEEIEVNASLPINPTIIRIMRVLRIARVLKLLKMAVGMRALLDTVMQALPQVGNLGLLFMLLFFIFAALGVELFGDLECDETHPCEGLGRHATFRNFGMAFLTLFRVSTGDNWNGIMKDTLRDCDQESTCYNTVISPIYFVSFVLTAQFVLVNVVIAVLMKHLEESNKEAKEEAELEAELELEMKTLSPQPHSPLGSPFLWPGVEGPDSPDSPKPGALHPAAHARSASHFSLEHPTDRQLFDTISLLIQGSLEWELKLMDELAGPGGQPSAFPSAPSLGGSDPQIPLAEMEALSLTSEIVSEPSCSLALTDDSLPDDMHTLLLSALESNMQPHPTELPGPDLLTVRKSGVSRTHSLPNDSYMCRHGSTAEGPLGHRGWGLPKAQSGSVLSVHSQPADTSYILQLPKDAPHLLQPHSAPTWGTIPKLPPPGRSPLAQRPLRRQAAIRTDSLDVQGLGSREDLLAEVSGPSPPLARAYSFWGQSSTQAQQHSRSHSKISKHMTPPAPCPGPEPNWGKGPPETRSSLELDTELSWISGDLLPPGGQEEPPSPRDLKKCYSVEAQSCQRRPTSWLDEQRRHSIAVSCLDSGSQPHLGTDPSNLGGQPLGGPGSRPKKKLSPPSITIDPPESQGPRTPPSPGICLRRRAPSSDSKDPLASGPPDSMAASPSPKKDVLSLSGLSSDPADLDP

melting point [°C] | inhibition at 10 µM [1, 2] [%] | inhibition at 10 µM ([1]; 10 μM, FDSS (% inhibition), comparative compounds where R6 is a phenyl group, read-out: FDSS) [%] | SMILES
261 | 63.8 | – | Cl.O=C(CC1CSC(=NC23CC4CC(CC(C4)C2)C3)N1C1CC1)Nc1ccc(Cl)cc1F (stereo not drawn) [KHG24801, [2-(1-adamantylimino)-3-cyclopropyl-1,3-thiazolidine-4-yl]-N-(4-chloro-2-fluorophenyl)-acetamide hydrochloride]
244 | 62.4 | – | Cl.O=C(CC1CSC(=NC23CC4CC(CC(C4)C2)C3)N1C1CC1)Nc1cc(Cl)ccc1F (stereo not drawn) [KHG24802, [2-(1-adamantylimino)-3-cyclopropyl-1,3-thiazolidine-4-yl]-N-(5-chloro-2-fluorophenyl)-acetamide hydrochloride]
153 | 32.2 | – | CCCN1C(=NC23CC4CC(CC(C4)C2)C3)SCC1CC(=O)Nc1cc(Cl)cc(Cl)c1.Cl (stereo not drawn) [KHG24805, [2-(1-adamantylimino)-3-n-propyl-1,3-thiazolidine-4-yl]-N-(3,5-dichlorophenyl)-acetamide hydrochloride]
239 | 61.6 | – | CCCN1C(=NC23CC4CC(CC(C4)C2)C3)SCC1CC(=O)Nc1ccc(C)cc1.Cl (stereo not drawn) [KHG24813, [2-(1-adamantylimino)-3-n-propyl-1,3-thiazolidine-4-yl]-N-(4-methylphenyl)-acetamide hydrochloride]
130 | 60.5 | – | CCCN1C(=NC23CC4CC(CC(C4)C2)C3)SCC1CC(=O)Nc1cc(Cl)ccc1F.Cl (stereo not drawn) [KHG24817, [2-(1-adamantylimino)-3-n-propyl-1,3-thiazolidine-4-yl]-N-(5-chloro-2-fluorophenyl)-acetamide hydrochloride]
201 | 68.2 | – | CCCN1C(=NC23CC4CC(CC(C4)C2)C3)SCC1CC(=O)Nc1ccc(C)cc1Cl.Cl (stereo not drawn) [KHG24818, [2-(1-adamantylimino)-3-n-propyl-1,3-thiazolidine-4-yl]-N-(2-chloro-4-methylphenyl)-acetamide hydrochloride]
158 | 69.2 | – | CCN1C(=NC23CC4CC(CC(C4)C2)C3)SCC1CC(=O)Nc1ccc(C(C)C)cc1.Cl (stereo not drawn) [KHG24819, [2-(1-adamantylimino)-3-ethyl-1,3-thiazolidine-4-yl]-N-(4-isopropylphenyl)-acetamide hydrochloride]
236 | 54.1 | – | CC(C)N1C(=NC23CC4CC(CC(C4)C2)C3)SCC1CC(=O)Nc1ccc(Cl)cc1.Cl (stereo not drawn) [KHG24823, [2-(1-adamantylimino)-3-isopropyl-1,3-thiazolidine-4-yl]-N-(4-chlorophenyl)-acetamide hydrochloride]
227 | 69 | – | CC(C)N1C(=NC23CC4CC(CC(C4)C2)C3)SCC1CC(=O)Nc1ccc(CF)cc1.Cl (stereo not drawn) [KHG24829, [2-(1-adamantylimino)-3-isopropyl-1,3-thiazolidine-4-yl]-N-(4-fluoromethylphenyl)-acetamide hydrochloride]
220 | 57 | – | Cc1ccc(NC(=O)CC2CSC(=NC34CC5CC(CC(C5)C3)C4)N2C(C)C)cc1.Cl (stereo not drawn) [KHG24831, [2-(1-adamantylimino)-3-isopropyl-1,3-thiazolidine-4-yl]-N-(4-methylphenyl)-acetamide hydrochloride]
228 | 65.7 | – | CC(C)N1C(=NC23CC4CC(CC(C4)C2)C3)SCC1CC(=O)Nc1ccc(Cl)cc1F.Cl (stereo not drawn) [KHG24834, [2-(1-adamantylimino)-3-isopropyl-1,3-thiazolidine-4-yl]-N-(4-chloro-2-fluorophenyl)-acetamide hydrochloride]
116 | 55.2 | – | CC(C)N1C(=NC23CC4CC(CC(C4)C2)C3)SCC1CC(=O)Nc1cc(Cl)ccc1F.Cl (stereo not drawn) [KHG24835, [2-(1-adamantylimino)-3-isopropyl-1,3-thiazolidine-4-yl]-N-(5-chloro-2-fluorophenyl)-acetamide hydrochloride]
231 | 48.9 | – | Cc1ccc(NC(=O)CC2CSC(=NC34CC5CC(CC(C5)C3)C4)N2C(C)C)cc1Cl.Cl (stereo not drawn) [KHG24836, [2-(1-adamantylimino)-3-isopropyl-1,3-thiazolidine-4-yl]-N-(5-chloro-4-methylphenyl)-acetamide hydrochloride]
145 | 59.7 | – | CCCN1C(=NC23CC4CC(CC(C4)C2)C3)SCC1CC(=O)Nc1cc([N+](=O)[O-])ccc1F.Cl (stereo not drawn) [KHG24839, [2-(1-adamantylimino)-3-n-propyl-1,3-thiazolidine-4-yl]-N-(2-fluoro-5-nitrophenyl)-acetamide hydrochloride]
131 | 49.4 | – | CC(C)N1C(=NC23CC4CC(CC(C4)C2)C3)SCC1CC(=O)Nc1cc([N+](=O)[O-])ccc1F.Cl (stereo not drawn) [KHG24840, [2-(1-adamantylimino)-3-isopropyl-1,3-thiazolidine-4-yl]-N-(2-fluoro-5-nitrophenyl)-acetamide hydrochloride]

The next lines start with the compound.

SMILES | melting point [°C] | inhibition at 10 µM [1, 2] [%] | inhibition at 10 µM ([1]; 10 μM, FDSS (% inhibition), comparative compounds where R6 is a phenyl group, read-out: FDSS) [%]
CCCN1C(=NC23CC4CC(CC(C4)C2)C3)SCC1CC(=O)Nc1ccc(C(C)C)cc1.Cl (stereo not drawn) [KHG24807, [2-(1-adamantylimino)-3-n-propyl-1,3-thiazolidine-4-yl]-N-(4-isopropylphenyl)-acetamide hydrochloride] | 155 | 59.7 | –
CCCCc1ccc(NC(=O)CC2CSC(=NC34CC5CC(CC(C5)C3)C4)N2CCC)cc1.Cl (stereo not drawn) [KHG24808, [2-(1-adamantylimino)-3-n-propyl-1,3-thiazolidine-4-yl]-N-(4-n-butylphenyl)-acetamide hydrochloride] | 213 | 37.6 | –
CCCN1C(=NC23CC4CC(CC(C4)C2)C3)SCC1CC(=O)Nc1ccc(C(F)(F)F)cc1.Cl (stereo not drawn) [KHG24809, [2-(1-adamantylimino)-3-n-propyl-1,3-thiazolidine-4-yl]-N-(4-trifluoromethylphenyl)-acetamide hydrochloride] | 221 | 57.3 | –
CCCN1C(=NC23CC4CC(CC(C4)C2)C3)SCC1CC(=O)Nc1ccc(Br)cc1.Cl (stereo not drawn) [KHG24812, [2-(1-adamantylimino)-3-n-propyl-1,3-thiazolidine-4-yl]-N-(4-bromophenyl)-acetamide hydrochloride] | 228 | 53.8 | –
CCCN1C(=NC23CC4CC(CC(C4)C2)C3)SCC1CC(=O)Nc1ccc(Oc2ccccc2)cc1.Cl (stereo not drawn) [KHG24815, [2-(1-adamantylimino)-3-n-propyl-1,3-thiazolidine-4-yl]-N-(4-phenoxyphenyl)-acetamide hydrochloride] | 135 | 32.7 | –
CCCCc1ccc(NC(=O)CC2CSC(=NC34CC5CC(CC(C5)C3)C4)N2CC)cc1.Cl (stereo not drawn) [KHG24820, [2-(1-adamantylimino)-3-ethyl-1,3-thiazolidine-4-yl]-N-(4-n-butylphenyl)-acetamide hydrochloride] | 141 | 58 | –
CC(C)N1C(=NC23CC4CC(CC(C4)C2)C3)SCC1CC(=O)Nc1ccc(C(F)(F)F)cc1.Cl (stereo not drawn) [KHG24826, [2-(1-adamantylimino)-3-isopropyl-1,3-thiazolidine-4-yl]-N-(4-trifluoromethylphenyl)-acetamide hydrochloride] | 246 | 46.5 | –
CC(C)N1C(=NC23CC4CC(CC(C4)C2)C3)SCC1CC(=O)Nc1cc(C(F)(F)F)cc(C(F)(F)F)c1.Cl (stereo not drawn) [KHG24828, [2-(1-adamantylimino)-3-isopropyl-1,3-thiazolidine-4-yl]-N-(3,5-ditrifluoromethylphenyl)-acetamide hydrochloride] | 233 | 35.4 | –
CCc1ccc(NC(=O)CC2CSC(=NC34CC5CC(CC(C5)C3)C4)N2C(C)C)cc1.Cl (stereo not drawn) [KHG24832, [2-(1-adamantylimino)-3-isopropyl-1,3-thiazolidine-4-yl]-N-(4-ethylphenyl)-acetamide hydrochloride] | 171 | 46.5 | –
CC(C)N1C(=NC23CC4CC(CC(C4)C2)C3)SCC1CC(=O)Nc1ccc(Oc2ccccc2)cc1.Cl (stereo not drawn) [KHG24833, [2-(1-adamantylimino)-3-isopropyl-1,3-thiazolidine-4-yl]-N-(4-phenoxyphenyl)-acetamide hydrochloride] | 164 | 37 | –
CN1C(=NC2C3CC4CC(C3)CC2C4)SCC1CC(=O)Nc1ccc(F)cc1.Cl (stereo not drawn) [KHG24842, [2-(2-adamantylimino)-3-methyl-1,3-thiazolidine-4-yl]-N-(4-fluorophenyl)-acetamide hydrochloride] | 154 | 59.8 | –
CN1C(=Nc2cccc(F)c2)SCC1CC(=O)Nc1ccc(Cl)cc1F.Cl (stereo not drawn) [KHG32076, [2-(3-fluorophenylimino)-3-methyl-1,3-thiazolidine-4-yl]-N-(4-chloro-2-fluorophenyl)-acetamide hydrochloride] | 229 to 231 | – | 20.5
